Drawing on patent US8541588B2, “Sulfonamide derivatives” (Pfizer Limited, priority 2009, dated 2013), this text covers IC50 for 14 compounds.

Bounds are passed on as bounds.

For the first assay, the target named is T1, Nav1.7 (or SCN9A) channel; HEK cells stably transfected with hSCN9A (Homo sapiens, UniProt Q15858).
T1 construct: expressed in transfected cells
T1 sequence (Q15858 whole entry): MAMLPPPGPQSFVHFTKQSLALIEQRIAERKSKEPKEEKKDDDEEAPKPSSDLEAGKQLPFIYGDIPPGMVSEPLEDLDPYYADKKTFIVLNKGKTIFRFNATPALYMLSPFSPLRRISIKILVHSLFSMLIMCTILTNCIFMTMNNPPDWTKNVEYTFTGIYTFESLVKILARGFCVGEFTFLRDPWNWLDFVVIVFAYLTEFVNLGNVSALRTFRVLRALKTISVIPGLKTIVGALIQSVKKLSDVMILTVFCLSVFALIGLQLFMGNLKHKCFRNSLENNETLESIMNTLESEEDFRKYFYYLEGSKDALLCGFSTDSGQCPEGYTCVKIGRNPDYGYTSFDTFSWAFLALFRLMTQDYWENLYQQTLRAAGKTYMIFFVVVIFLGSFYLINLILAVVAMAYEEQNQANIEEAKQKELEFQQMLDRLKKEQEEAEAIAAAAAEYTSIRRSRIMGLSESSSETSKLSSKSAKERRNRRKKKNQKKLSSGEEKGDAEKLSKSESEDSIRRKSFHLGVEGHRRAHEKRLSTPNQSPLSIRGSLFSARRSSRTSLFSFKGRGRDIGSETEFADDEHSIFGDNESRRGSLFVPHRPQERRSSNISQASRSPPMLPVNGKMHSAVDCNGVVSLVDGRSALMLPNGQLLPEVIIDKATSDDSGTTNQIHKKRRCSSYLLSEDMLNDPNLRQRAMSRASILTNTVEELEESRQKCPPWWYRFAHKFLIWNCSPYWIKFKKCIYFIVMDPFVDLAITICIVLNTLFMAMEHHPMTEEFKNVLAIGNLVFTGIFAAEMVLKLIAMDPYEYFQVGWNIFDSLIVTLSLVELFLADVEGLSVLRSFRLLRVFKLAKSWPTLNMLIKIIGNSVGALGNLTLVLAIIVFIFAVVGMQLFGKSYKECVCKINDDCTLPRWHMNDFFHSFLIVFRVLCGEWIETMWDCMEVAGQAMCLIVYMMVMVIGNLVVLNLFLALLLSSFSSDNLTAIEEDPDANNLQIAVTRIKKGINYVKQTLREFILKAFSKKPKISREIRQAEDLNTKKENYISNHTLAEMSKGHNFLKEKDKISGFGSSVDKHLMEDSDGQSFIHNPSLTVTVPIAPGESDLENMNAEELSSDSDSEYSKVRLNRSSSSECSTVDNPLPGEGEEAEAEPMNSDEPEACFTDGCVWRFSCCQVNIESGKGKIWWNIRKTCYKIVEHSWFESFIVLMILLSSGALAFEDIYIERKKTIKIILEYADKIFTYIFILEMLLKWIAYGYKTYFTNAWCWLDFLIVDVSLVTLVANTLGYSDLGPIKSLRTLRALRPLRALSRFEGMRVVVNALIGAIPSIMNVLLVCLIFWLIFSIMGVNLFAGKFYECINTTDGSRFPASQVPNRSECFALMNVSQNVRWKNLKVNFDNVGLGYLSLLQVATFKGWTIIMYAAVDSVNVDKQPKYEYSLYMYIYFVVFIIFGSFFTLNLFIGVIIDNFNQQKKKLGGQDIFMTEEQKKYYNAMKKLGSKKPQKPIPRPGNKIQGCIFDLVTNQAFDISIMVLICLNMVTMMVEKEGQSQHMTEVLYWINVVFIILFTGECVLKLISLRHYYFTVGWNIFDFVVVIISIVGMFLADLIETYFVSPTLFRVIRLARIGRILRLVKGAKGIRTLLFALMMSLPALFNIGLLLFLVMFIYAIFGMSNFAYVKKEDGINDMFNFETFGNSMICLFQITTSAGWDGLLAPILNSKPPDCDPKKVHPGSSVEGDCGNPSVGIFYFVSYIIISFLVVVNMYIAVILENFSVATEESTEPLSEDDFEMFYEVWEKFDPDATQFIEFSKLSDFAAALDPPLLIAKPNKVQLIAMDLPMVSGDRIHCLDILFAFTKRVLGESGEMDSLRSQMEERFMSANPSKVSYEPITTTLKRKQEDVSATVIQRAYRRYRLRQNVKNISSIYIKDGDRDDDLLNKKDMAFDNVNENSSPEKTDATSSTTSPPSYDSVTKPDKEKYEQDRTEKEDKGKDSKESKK
In words: Nav1.7 block, PatchXpress 7000 automated whole-cell voltage clamp, estimated IC50 (EIC50). In kind it is cell-based. The settings on record: PatchXpress platform; hSCN9A HEK cells held at V1/2 of inactivation; estimated IC50.
Regarding `O=S(=O)(Nc1nccs1)c1ccc(Oc2ccc(Cl)cc2-c2ccnn2-c2ccccc2)c(F)c1` [Example 227, 4-(4-chloro-2-(1-phenyl-1H-pyrazol-5-yl)phenoxy)-3-fluoro-N-(thiazol-2-yl)benzenesulfonamide], the IC50 is 0.03 µM.
Same read-out and setting: with `N#Cc1cc(S(=O)(=O)Nc2ncns2)ccc1Oc1ccccc1-c1cc(F)ccc1F` [Example 36, 3-cyano-4-[(2′,5′-difluorobiphenyl-2-yl)oxy]-N-1,2,4-thiadiazol-5-ylbenzenesulfonamide] the figure was 1.29 µM.
Take `Cn1nc(Cc2ccc(Cl)cc2)cc1Oc1ccc(S(=O)(=O)Nc2nccs2)cc1F` [Example 241, 4-[5-(4-chloro-benzyl)-2-methyl-2H-pyrazol-3-yloxy]-3-fluoro-N-thiazol-2-yl-benzenesulfonamide]: the IC50 was 1.47 µM.

The same assay, now with this note: estimated IC50; hSCN9A HEK cells, PatchXpress platform; Examples 283-814.
As for `N#Cc1cc(S(=O)(=O)Nc2nccs2)ccc1Oc1cccc(-c2cc(C(F)(F)F)ccn2)c1` [Example 447, 3-cyano-N-1,3-thiazol-2-yl-4-{3-[4-(trifluoromethyl)pyridin-2-yl]phenoxy}benzenesulfonamide], the IC50 is 1.8 µM.
For `N#Cc1cc(S(=O)(=O)Nc2nccs2)ccc1Oc1ccc(-n2cc(Cl)cn2)c(C(=O)O)c1` [Example 497, 2-(4-chloro-1H-pyrazol-1-yl)-5-{2-cyano-4-[(1,3-thiazol-2-ylamino)sulfonyl]phenoxy}benzoic acid], the half-maximal inhibitory concentration (IC50) is more than 1 µM.
Same read-out and setting: under `Cn1ncnc1-c1cc(Cl)ccc1Oc1ccc(S(=O)(=O)Nc2nccs2)cc1F` [Example 406, 4-[4-chloro-2-(1-methyl-1H-1,2,4-triazol-5-yl)phenoxy]-3-fluoro-N-1,3-thiazol-2-ylbenzenesulfonamide] stands 3 µM; under `N#Cc1cc(S(=O)(=O)Nc2ncc(Cl)s2)ccc1Oc1ccc(F)cc1-c1cn[nH]c1` [Example 785, N-(5-Chloro-1,3-thiazol-2-yl)-3-cyano-4-[4-fluoro-2-(1H-pyrazol-4-yl)phenoxy]benzenesulfonamide], 0.04 µM.
Still for that read-out and setting: under `Cn1nccc1-c1cc(Cl)ccc1Oc1ccc(S(=O)(=O)Nc2ccccn2)cc1C#N` [Example 442, 4-[4-chloro-2-(1-methyl-1H-pyrazol-5-yl)phenoxy]-3-cyano-N-pyridin-2-ylbenzenesulfonamide] stands 1.3 µM; under `N#Cc1cc(S(=O)(=O)Nc2cscn2)ccc1Oc1ccc(Cl)cc1-c1ccnn1C(F)(F)F` [Example 399, 4-{4-chloro-2-[1-(trifluoromethyl)-1H-pyrazol-5-yl]phenoxy}-3-cyano-N-1,3-thiazol-4-ylbenzenesulfonamide], 1.2 µM.
Turning to `Cn1nc(C(F)(F)F)cc1-c1ccc(Oc2ccc(S(=O)(=O)Nc3nccs3)cc2F)cc1` [Example 684, 3-fluoro-4-{4-[1-methyl-3-(trifluoromethyl)-1H-pyrazol-5-yl]phenoxy}-N-1,3-thiazol-2-ylbenzenesulfonamide], the IC50 is 1 µM.
Same read-out and setting: with `CN(C)CCn1nc(C(F)(F)F)cc1-c1cccc(Oc2ccc(S(=O)(=O)Nc3nccs3)cc2C#N)c1` [Example 550, 3-cyano-4-(3-{1-[2-(dimethylamino)ethyl]-3-(trifluoromethyl)-1H-pyrazol-5-yl}phenoxy)-N-1,3-thiazol-2-ylbenzenesulfonamide] the figure was 0.2 µM.

Staying with this assay, now noted: estimated IC50; hSCN9A HEK cells, PatchXpress platform; Examples 815-1040.
With `O=S(=O)(Nc1ncccn1)c1cc(Cl)c(Oc2ccc(OC(F)(F)F)cc2-c2ccnnc2)cc1F` [Example 945, 5-chloro-2-fluoro-4-[2-pyridazin-4-yl-4-(trifluoromethoxy)phenoxy]-N-pyrimidin-2-ylbenzenesulfonamide], the IC50 is 0.099 µM.
Still for that read-out and setting: under `O=S(=O)(Nc1cscn1)c1ccc(Oc2ccc(Cl)cc2-c2ccn[nH]2)c(Cl)c1` [Example 911, 3-chloro-4-[4-chloro-2-(1H-pyrazol-5-yl)phenoxy]-N-1,3-thiazol-4-ylbenzenesulfonamide] stands 0.17 µM; under `Nc1n[nH]cc1-c1cc(Cl)ccc1Oc1ccc(S(=O)(=O)Nc2ccncn2)cc1Cl` [Example 973, 4-[2-(3-amino-1H-pyrazol-4-yl)-4-chlorophenoxy]-3-chloro-N-pyrimidin-4-ylbenzenesulfonamide], 0.025 µM.

As usually defined, the IC50 is the point on the concentration scale where inhibition reaches its midpoint.
